Experimental data from paper PMC7708037, “Targeting OGG1 arrests cancer cell proliferation by inducing replication stress” (Nucleic Acids Research, 2020).

Key:
[1] = tested on: MRC5; test: Colony formation assay; assay type: cell-based, human; settings: MRC5, up to 20 μM
Method: (§1) The indicated concentrations TH5487 were spotted in 6-well plates using a Tecan D300e digital dispenser. 200–500 cells/well H460, ACHN, Ogg1^−/− mouse embryonic fibroblasts and MRC5 cells were then seeded at 200–500 cells/well and incubated for 7–11 days. Colonies exceeding 50 cells were fixed, stained and enumerated as above.
(§2) Figure 3. The OGG1 inhibitor TH5487 is selectively toxic to oncogene-expressing cells and cancer cell lines. (A) Close-up view of ligand TH5487 (green) binding to human OGG1. Important residues in the binding site are marked, hydrogen bond interactions are shown in black dashed line, water (red sphere)-mediated interactions in grey dashed line. (B) Comparison between the binding of ligand TH5487 (green) to human OGG1 (gray) with the structure of TH5675 (pink) bound to mouse OGG1 (yellow, PDB 6G3Y). (C) Viability of BJ-Tert and BJ-Ras cells exposed to the indicated concentrations TH5487 for five days. Data are average ±SD of four technical replicates from two independent experiments. (D) Clonogenic survival of cell lines exposed to TH5487. The cancer cell lines ACHN and H460, and the non-transformed cell lines MRC5 and Ogg1^−/− mouse embryonic fibroblasts (MEF) were incubated for 6–11 days in the presence of the indicated concentrations TH5487, followed by colony enumeration. Data are average ±SD values of four technical replicates, representative of three independent experiments. (E) TH5487 selectively decreases viability of cancer cell lines. EC50-values of 34 cancer (red) and 7 non-transformed cell lines (blue). Cells were exposed to a dilution series of TH5487 for five days followed by a viability assessment using resazurin. All cell lines were tested in two to ten independent experiments. Each point represents the EC50-value from one experiment (average of two or three technical replicates). (F) Comparative analysis of EC50 values for TH5487 in cancer- and non-transformed cell lines, and CD34+ hematopoietic stem cells, CD34- fraction from cord blood or PBMCs from healthy donor blood. […]

[2] = tested on: ACHN; test: Colony formation assay; assay type: cell-based, human; settings: 6–11 days, Figure 3D
Method: as §1, §2

[3] = tested on: H460; test: Colony formation assay; assay type: cell-based, human; settings: H460, 6–11 days, Figure 3D
Method: as §1, §2

[4] = tested on: CD3+ T-cells; test: CD3 flow cytometry assay (T-cell survival); assay type: cell-based; parameters: Survival of CD3+ T-cells (flow cytometry): dose or concentration left out as unconfirmed
Method: The experiment was performed on blood cells from 4 different healthy individuals, with three replicates each. Human peripheral blood mononuclear cells were isolated from fresh buffy coats obtained from healthy donors via the Karolinska Hospital, Stockholm, Sweden. For separation, Ficoll-Paque PLUS density medium (17144003, GE Healthcare) and SepMate separation tubes (85450, StemCell) were used, according to manufacturer's instructions. Briefly, buffy coat diluted 1:1 with PBS and layered on 15 ml of Ficoll-Paque PLUS in the SepMate tubes was spun down for 10 min at […]. The upper layer of the tube content was then poured into new falcon tubes and washed twice with PBS.
Cells were seeded out in round bottom 96-well plates (83.3925.500, Sarstedt) in RPMI Medium 1640 containing GlutaMAX™ (61870-010, ThermoFisher) supplemented with 10% human AB+ male heat inactivated clotted whole blood serum (H5667, Sigma-Aldrich) and 100 U/ml penicillin/streptomycin (15140122, Gibco). […] Only viable cells were counted, using a TC20™ automated cell counter (Bio-Rad) and Trypan blue (1450021, Bio-Rad). […]
10 000 events from an FSC-SSC gate set on the typical living lymphocyte population were collected and the data was compensated and analyzed using FlowJo 10.5.3. […] The number of CD3 positive, viable events was quantified and then divided by the number of Precision Count Beads™ collected per tube. […]

O=C(Nc1ccc(I)cc1)N1CCC(n2c(=O)[nH]c3c(Br)cccc32)CC1 [TH5487]
Clonogenic potential [1]: unaffected | Clonogenic potential [2]: concentration-dependent loss of clonogenic potential | Clonogenic potential [3]: concentration-dependent loss of clonogenic potential | Survival of CD3+ T-cells (flow cytometry) ([4]; Dynabeads-activated, 6 days): well tolerated | Tolerance by primary T-cells ([4]; the same dose (10 μM), healthy donors): well tolerated
